These results are taken from patent US20060252807A1, “Novel ortho-terphenyl inhibitors of p38 kinase and methods of treating inflammatory disorders” (Kalypsys, Inc., priority 2005, published 2006).

In general, IC50 refers to the point on the concentration scale where inhibition reaches its midpoint. Read a low IC50 as inhibition by little substance.

In this assay the target is T1, active p38 alpha enzyme (Upstate Biotechnology) (Homo sapiens, UniProt Q16539).
T1 construct: purchased Upstate Biotechnology
T1 sequence (Q16539 whole entry): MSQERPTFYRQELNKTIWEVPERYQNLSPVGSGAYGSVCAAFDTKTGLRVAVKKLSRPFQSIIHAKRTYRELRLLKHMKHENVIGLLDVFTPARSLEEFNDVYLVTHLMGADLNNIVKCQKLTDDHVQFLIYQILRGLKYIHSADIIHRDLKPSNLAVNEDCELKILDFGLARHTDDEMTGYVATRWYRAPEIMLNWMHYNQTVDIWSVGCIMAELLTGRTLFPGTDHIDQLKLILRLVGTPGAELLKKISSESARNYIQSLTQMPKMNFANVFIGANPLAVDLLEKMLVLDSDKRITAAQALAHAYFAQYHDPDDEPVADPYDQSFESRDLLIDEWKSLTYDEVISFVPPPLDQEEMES
The assay can be described thus: p38α biochemical assay (ATP turnover, luminescent detection, Cambrex PKlight). The note with it: p38α biochemical assay, Table 1 Biological Activity. In a few lines:
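In this kinase reaction, p38α used MapkapK2 as phosphorylation substrate at low ATP (1.4 uM final) over 2 hours at 30C, and activity was followed as ATP turnover by luminescence.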
Turning to `CC(C)NC(=O)c1csc(-c2oc(CNC(=O)C3CCCN3C(=O)OCc3ccccc3)nc2-c2ccc(F)cc2)n1` (stereo not drawn) [Example 327], the 50% inhibitory concentration (IC50) is greater than 1000 nM.

The compound `CCC(C)C(NC(=O)OC(C)(C)C)C(=O)NCc1nc(-c2ccc(F)cc2)c(-c2nc(C(=O)NC(C)C)cs2)o1` (stereo not drawn) [Example 328] yielded an IC50 greater than 1000 nM.

In the case of `CC(C)CC(NC(=O)OC(C)(C)C)C(=O)NCc1nc(-c2ccc(F)cc2)c(-c2nc(C(=O)NC(C)C)cs2)o1` (stereo not drawn) [Example 329], the IC50 is greater than 1000 nM.

For the compound `CC(C)NC(=O)c1csc(-c2oc(CNC(=O)C(C)c3cccc(C(=O)c4ccccc4)c3)nc2-c2ccc(F)cc2)n1` (stereo not drawn) [Example 330], the IC50 is greater than 1000 nM.

The compound `CC(C)NC(=O)c1csc(-c2oc(CNC(=O)C(Cc3ccccc3)NC(=O)OC(C)(C)C)nc2-c2ccc(F)cc2)n1` (stereo not drawn) [Example 331] registered a 50% inhibitory concentration (IC50) of no more than 1000 nM.

`CC(C)NC(=O)c1csc(-c2oc(CNC(=O)C(Cc3ccccn3)NC(=O)OC(C)(C)C)nc2-c2ccc(F)cc2)n1` (stereo not drawn) [Example 332] had an IC50 greater than 1000 nM.

Consider `CC(C)NC(=O)c1csc(-c2oc(CNC(=O)C3Cc4ccccc4CN3C(=O)OC(C)(C)C)nc2-c2ccc(F)cc2)n1` (stereo not drawn) [Example 333], for which the IC50 was greater than 1000 nM.

`CC(C)NC(=O)c1csc(-c2oc(CNC(=O)C(Cc3ccc(O)cc3)NC(=O)OC(C)(C)C)nc2-c2ccc(F)cc2)n1` (stereo not drawn) [Example 334] displayed a half-inhibitory concentration (IC50) of no more than 1000 nM.

On to `CC(=O)N1CCN(Cc2nc(-c3ccc(F)cc3)c(-c3nc(C(=O)NC(C)C)cs3)o2)CC1` [Example 335], for which the IC50 was no more than 1000 nM.

`CC(C)NC(=O)c1csc(-c2oc(CN3CCN(C(=O)C=O)CC3)nc2-c2ccc(F)cc2)n1` [Example 336] showed a half-inhibitory concentration (IC50) of no more than 1000 nM.

Take `CC(C)NC(=O)c1csc(-c2oc(CN3CCN(C(=O)CC#N)CC3)nc2-c2ccc(F)cc2)n1` [Example 337]: the IC50 was no more than 1000 nM.

Compound `CC(C)NC(=O)c1csc(-c2oc(CN3CCN(C(=O)C(C)O)CC3)nc2-c2ccc(F)cc2)n1` (stereo not drawn) [Example 338] returned an IC50 greater than 1000 nM.

For the compound `CCC(=O)C(=O)N1CCN(Cc2nc(-c3ccc(F)cc3)c(-c3nc(C(=O)NC(C)C)cs3)o2)CC1` [Example 339], the IC50 was greater than 1000 nM.

`CC(C)NC(=O)c1csc(-c2oc(CN3CCN(C(=O)C(C)(C)C)CC3)nc2-c2ccc(F)cc2)n1` [Example 340] registered a half-maximal inhibitory concentration (IC50) of no more than 1000 nM.

`CC(C)CC(=O)N1CCN(Cc2nc(-c3ccc(F)cc3)c(-c3nc(C(=O)NC(C)C)cs3)o2)CC1` [Example 341] displayed an IC50 greater than 1000 nM.

As for `CC(C)NC(=O)c1csc(-c2oc(CN3CCN(C(=O)c4cnc[nH]4)CC3)nc2-c2ccc(F)cc2)n1` [Example 342], the IC50 was no more than 1000 nM.

Compound `CC(C)NC(=O)c1csc(-c2oc(CN3CCN(C(=O)c4ncc[nH]4)CC3)nc2-c2ccc(F)cc2)n1` [Example 343] returned an IC50 of no more than 1000 nM.

In turn, `CC(C)NC(=O)c1csc(-c2oc(CN3CCN(C(=O)C4=CCCC4)CC3)nc2-c2ccc(F)cc2)n1` [Example 344] returned an IC50 greater than 1000 nM.

`CC(C)NC(=O)c1csc(-c2oc(CN3CCN(C(=O)C(F)(F)F)CC3)nc2-c2ccc(F)cc2)n1` [Example 345] showed an IC50 of no more than 1000 nM.

Compound `CC(C)NC(=O)c1csc(-c2oc(CN3CCN(C(=O)C4CCCO4)CC3)nc2-c2ccc(F)cc2)n1` (stereo not drawn) [Example 346] displayed a concentration for half-maximal inhibition (IC50) greater than 1000 nM.

In the case of `CC(=O)NCC(=O)N1CCN(Cc2nc(-c3ccc(F)cc3)c(-c3nc(C(=O)NC(C)C)cs3)o2)CC1` [Example 347], the concentration for half-maximal inhibition (IC50) was greater than 1000 nM.

In turn, `CC(C)NC(=O)c1csc(-c2oc(CN3CCN(C(=O)c4ccccc4)CC3)nc2-c2ccc(F)cc2)n1` [Example 348] yielded a half-inhibitory concentration (IC50) greater than 1000 nM.

`CC(C)NC(=O)c1csc(-c2oc(CN3CCN(C(=O)c4cccnc4)CC3)nc2-c2ccc(F)cc2)n1` [Example 349] registered an IC50 greater than 1000 nM.

In turn, `CC(C)NC(=O)c1csc(-c2oc(CN3CCN(C(=O)c4ccncc4)CC3)nc2-c2ccc(F)cc2)n1` [Example 350] had an IC50 of no more than 1000 nM.

For `CC(C)NC(=O)c1csc(-c2oc(CN3CCN(C(=O)c4ccccn4)CC3)nc2-c2ccc(F)cc2)n1` [Example 351], the IC50 is greater than 1000 nM.

The compound `CC(C)NC(=O)c1csc(-c2oc(CN3CCN(C(=O)C(O)CCl)CC3)nc2-c2ccc(F)cc2)n1` (stereo not drawn) [Example 352] showed an IC50 greater than 1000 nM.

Turning to `Cc1cc(C(=O)N2CCN(Cc3nc(-c4ccc(F)cc4)c(-c4nc(C(=O)NC(C)C)cs4)o3)CC2)n[nH]1` [Example 353], the IC50 was no more than 1000 nM.

In turn, `CC(C)NC(=O)c1csc(-c2oc(CN3CCN(C(=O)c4cn(C)cn4)CC3)nc2-c2ccc(F)cc2)n1` [Example 354] yielded an IC50 of no more than 1000 nM.

In turn, `CC(C)NC(=O)c1csc(-c2oc(CN3CCN(C(=O)C4CCCCC4)CC3)nc2-c2ccc(F)cc2)n1` [Example 355] registered an IC50 of no more than 1000 nM.

In the case of `CC(C)NC(=O)c1csc(-c2oc(CN3CCN(C(=O)c4cscn4)CC3)nc2-c2ccc(F)cc2)n1` [Example 356], the IC50 is no more than 1000 nM.

The compound `CCOC(=O)CC(=O)N1CCN(Cc2nc(-c3ccc(F)cc3)c(-c3nc(C(=O)NC(C)C)cs3)o2)CC1` [Example 357] had an IC50 of no more than 1000 nM.

Consider `Cc1cccc(C(=O)N2CCN(Cc3nc(-c4ccc(F)cc4)c(-c4nc(C(=O)NC(C)C)cs4)o3)CC2)c1` [Example 358], for which the IC50 was greater than 1000 nM.

Compound `Cc1ccccc1C(=O)N1CCN(Cc2nc(-c3ccc(F)cc3)c(-c3nc(C(=O)NC(C)C)cs3)o2)CC1` [Example 359] yielded an IC50 greater than 1000 nM.

Compound `Cc1ccc(C(=O)N2CCN(Cc3nc(-c4ccc(F)cc4)c(-c4nc(C(=O)NC(C)C)cs4)o3)CC2)cc1` [Example 360] had a half-inhibitory concentration (IC50) greater than 1000 nM.

In turn, `CC(C)NC(=O)c1csc(-c2oc(CN3CCN(C(=O)c4cccc(O)c4)CC3)nc2-c2ccc(F)cc2)n1` [Example 361] returned a half-inhibitory concentration (IC50) greater than 1000 nM.

For `CC(C)NC(=O)c1csc(-c2oc(CN3CCN(C(=O)c4ccccc4O)CC3)nc2-c2ccc(F)cc2)n1` [Example 362], the IC50 is no more than 1000 nM.

As to `CC(C)NC(=O)c1csc(-c2oc(CN3CCN(C(=O)c4ccc(F)cc4)CC3)nc2-c2ccc(F)cc2)n1` [Example 363], the IC50 is greater than 1000 nM.

In turn, `CC(C)NC(=O)c1csc(-c2oc(CN3CCN(C(=O)c4cccc(F)c4)CC3)nc2-c2ccc(F)cc2)n1` [Example 364] returned a concentration for half-maximal inhibition (IC50) greater than 1000 nM.

Regarding `CCCCCCCC(=O)N1CCN(Cc2nc(-c3ccc(F)cc3)c(-c3nc(C(=O)NC(C)C)cs3)o2)CC1` [Example 365], the IC50 was greater than 1000 nM.

`CC(C)NC(=O)c1csc(-c2oc(CN3CCN(C(=O)c4ccc(C#N)cc4)CC3)nc2-c2ccc(F)cc2)n1` [Example 366] returned an IC50 greater than 1000 nM.

Regarding `CC(C)NC(=O)c1csc(-c2oc(CN3CCN(C(=O)c4cccc(C#N)c4)CC3)nc2-c2ccc(F)cc2)n1` [Example 367], the IC50 was greater than 1000 nM.

Regarding `CC(C)NC(=O)c1csc(-c2oc(CN3CCN(C(=O)/C=C/c4ccccc4)CC3)nc2-c2ccc(F)cc2)n1` [Example 368], the IC50 is greater than 1000 nM.

`CC(C)NC(=O)c1csc(-c2oc(CN3CCN(C(=O)c4ccccc4C=O)CC3)nc2-c2ccc(F)cc2)n1` [Example 369] registered a 50% inhibitory concentration (IC50) of no more than 1000 nM.

In turn, `CC(C)NC(=O)c1csc(-c2oc(CN3CCN(C(=O)c4ccc(C=O)cc4)CC3)nc2-c2ccc(F)cc2)n1` [Example 370] returned an IC50 greater than 1000 nM.

`Cc1ccc(C(=O)N2CCN(Cc3nc(-c4ccc(F)cc4)c(-c4nc(C(=O)NC(C)C)cs4)o3)CC2)c(C)c1` [Example 371] gave an IC50 of no more than 1000 nM.
